Experiments:
[1] = target: T1, human cloned 5-HT6 receptors (Homo sapiens, UniProt P50406); test: 5-HT6 binding affinity, [3H]-LSD displacement on membranes of Hela cells expressing human cloned 5-HT6 receptors; details: [3H]-LSD 3.0 nM, Hela cell membranes, 120 min at room temperature; read-out: 5-HT6 Binding Ki
T1 construct: expressed in transfected cells; host or cells: HeLa cells (membrane preparation)
Procedure: The affinity of test compounds for the serotonin 5-HT6 receptor is evaluated in the following manner. Cultured Hela cells expressing human cloned 5-HT6 receptors are harvested and centrifuged at low speed (1,000×g) for 10.0 min to remove the culture media. The harvested cells are suspended in half volume of fresh physiological phosphate buffered saline solution and recentrifuged at the same speed. This operation is repeated. The collected cells are then homogenized in ten volumes of 50 mM Tris.HCl (pH 7.4) and 0.5 mM EDTA. The homogenate is centrifuged at 40,000×g for 30.0 min and the precipitate is collected. The obtained pellet is resuspended in 10 volumes of Tris.HCl buffer and recentrifuged at the same speed. The final pellet is suspended in a small volume of Tris.HCl buffer and the tissue protein content is determined in aliquots of 10-25 μl volumes. Bovine Serum Albumin is used as the standard in the protein determination according to the method described in Lowry et al., J. Biol. Chem., 193:265 (1951). The volume of the suspended cell membranes is adjusted to give a tissue protein concentration of 1.0 mg/ml of suspension. The prepared membrane suspension (10 times concentrated) is aliquoted in 1.0 ml volumes and stored at −70° C. until used in subsequent binding experiments.
Binding experiments are performed in a 96 well microtiter plate format, in a total volume of 200 μl. […] The test compounds are added in 20.0 μl volume.
The reaction is allowed to proceed in the dark for 120 min at room temperature, at which time, the bound ligand-receptor complex is filtered off on a 96 well unifilter with a Packard Filtermate® 196 Harvester. The bound complex caught on the filter disk is allowed to air dry and the radioactivity is measured in a Packard TopCount® equipped with six photomultiplier detectors, after the addition of 40.0 μl Microscint®−20 scintillant to each shallow well. The unifilter plate is heat-sealed and counted in a PackardTopCount® with a tritium efficiency of 31.0%.
Binding in the presence of varying concentrations of test compound is expressed as a percentage of specific binding in the absence of test compound. The results are plotted as log % bound versus log concentration of test compound. Nonlinear regression analysis of data points with a computer assisted program Prisms® yields both the IC50 and the Ki values of test compounds with 95% confidence limits.
The amount of displacement by the test compound is given in percent (%) inhibition and is derived from the following equation:
[formula] where B0 is the amount of CPM bound in the presence of the testing agent. NSB represents the CPM bound in the presence of a saturating concentration of a displacer and TB represents the total amount of CPM bound at zero (0) concentration of test compound.
Alternatively, a linear regression line of data points is plotted, from which the IC50 value is determined and the Ki value is determined based upon the following equation: Ki=IC50/(1+L/KD) where L is the concentration of the radioactive ligand used and KD is the dissociation constant of the ligand for the receptor, both expressed in nM.

T1 sequence (P50406 whole entry): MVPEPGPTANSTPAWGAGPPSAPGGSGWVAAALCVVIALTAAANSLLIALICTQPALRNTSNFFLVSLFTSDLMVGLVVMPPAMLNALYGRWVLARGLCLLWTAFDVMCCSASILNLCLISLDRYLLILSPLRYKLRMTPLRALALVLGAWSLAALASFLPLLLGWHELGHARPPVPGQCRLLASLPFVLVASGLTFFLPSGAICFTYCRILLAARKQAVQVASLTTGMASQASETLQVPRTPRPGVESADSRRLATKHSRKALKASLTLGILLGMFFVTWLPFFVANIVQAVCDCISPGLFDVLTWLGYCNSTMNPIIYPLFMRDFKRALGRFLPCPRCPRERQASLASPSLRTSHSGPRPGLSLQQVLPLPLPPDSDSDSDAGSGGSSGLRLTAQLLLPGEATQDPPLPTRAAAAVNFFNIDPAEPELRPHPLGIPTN

With `CN1CCN(c2ccc3[nH]nc(S(=O)(=O)c4ccc(Br)cc4)c3c2)CC1` [Example 17] the Ki [1] was 7 nM and the melting point was > 250 °C.

Source: patent US7560470B2, “Heterocyclyl-3-sulfonylindazoles as 5-hydroxytryptamine-6 ligands” (Wyeth, priority 2003, dated 2009)
